Results: US7041662B2, “Substituted benzo [b] azepin-2-one compounds” (Grunenthal GmbH, priority 2002, dated 2006)

System: phenylquinone-induced writhing reactions
Test: phenylquinone-induced writhing in mice
Format: in vivo
Settings: male NMRI mice, phenylquinone i.p. 10 minutes after compound, writhing counted 5-20 minutes after phenylquinone
Protocol: The investigation into analgesic efficacy was performed by phenylquinone-induced writhing in mice (modified after: I. C. Hendershot, J. Forsaith, J. Pharmacol. Exp. There. 125, 237–240 (1959)). The corresponding literature description is hereby introduced as a reference and is deemed to be part of the disclosure.
Male NMRI mice weighing from 25 to 30 g were used for this purpose. Groups of 10 animals per substance dose received, 10 minutes after intravenous administration of the compounds tested, 0.3 ml/mouse of a 0.02% aqueous solution of phenylquinone (phenylbenzoquinone, Sigma, Deisenhofen; solution prepared with addition of 5% of ethanol and stored in a water bath at 45° C.) administered intraperitoneally. The animals were placed individually in observation cages. A push button counter was used to record the number of pain-induced stretching movements (writhing reactions=straightening of the torso with stretching of the rear extremities) for 5–20 minutes after phenylquinone administration. The control was provided by animals who received only physiological common salt solution.
The compounds were tested at the standard dosage of 10 mg/kg. Inhibition of the writhing reactions by a substance was calculated according to the following formula: […]
The in-depth investigation into analgesic efficacy was performed using phenylquinone-induced writhing in mice, as described above.

SMILES	% inhibition of writhing reactions 10 mg/kg i.v. [%]
COc1cccc(C2(O)CCC(OC(=O)CC3=CCC(=O)N(C)c4cc(Cl)ccc43)CC2CN(C)C)c1 (stereo not drawn) [Example 4, 2′-(8-chloro-1-methyl-2-oxo-2,3-dihydro-1H-benzo[b]azepin-5-yl) acetic acid [3″-(N,N-dimethylaminomethyl)-4″-hydroxy-4″-(m-methoxyphenyl)cyclohexyl]ester]	39
COc1cccc(C2(O)CCC(OC(=O)CC3=CCC(=O)Nc4cc(Cl)ccc43)CC2CN(C)C)c1 (stereo not drawn) [Example 5, 2′-(8-chloro-2-oxo-2,3-dihydro-1H-benzo[b]azepin-5-yl) acetic acid [3″-(N,N-dimethylaminomethyl)-4″-hydroxy-4″-(m-methoxyphenyl)cyclohexyl]ester]	63
COc1cccc(C2(O)CCC(NC(=O)CC3=CCC(=O)N(C)c4cc(Cl)ccc43)CC2CN(C)C)c1 (stereo not drawn) [Example 6, 2′-(8-chloro-1-methyl-2-oxo-2,3-dihydro-1H-benzo[b]azepin-5-yl)-N-[3″-(N,N-dimethylaminomethyl)-4″-hydroxy-4″-(m-methoxyphenyl)cyclohexyl]acetamide]	25
